Assay results taken from patent US9598441B2, “Therapeutic compounds and methods” (Wayne State University, priority 2011, dated 2017).

Assays:
[1] = tested on: MDA-MB-468 wild-type, vector and CARP-1 (Δ896-978) expressing cells; experiment: MTT assay in stable HBC sublines expressing vector or CARP-1 (Δ896-978); format: cell-based, human; conditions: for growth of wild-type, vector and CARP-1 (Δ896-978) expressing cells (MTT): 0.1 and 1.0 μg/ml ADR, or 5 and 10 μM CFM-4; for sensitivity of CARP-1 (Δ896-978) expressing cells to inhibition: versus wild-type or vector cells
Source text: Routine maintenance and culture of MDA-MB-231, MDA-MB-468, SKBR-3 (all lack ER and have mutant p53), MCF-7, T47D (both have ER and wild-type p53) HBC cells (Runnebaum, I. B., Nagarajan, M., Bowman, M., Soto, D., and Sukumar, S. (1991). Proc. Natl. Acad. Sci. USA 88, 10657-10661), human prostate cancer PC3 and LnCAP cells, HCT-116 human colon cancer, human pancreatic cancer PANC-1 and BxPC-3, Burkett lymphoma Raji, diffuse large B-cell lymphoma WSU-DLCL2, follicular lymphoma WSU-FSCCL cells, cervical cancer HeLa, human mesothelial Met5a, human pleural malignant mesothelioma (MPM), murine MPM AB12 cells (Wang, Y., Rishi, A. K., Puliyappadamba, V. T., Sharma, S., Yang, H., Tarca, A., Dou, Q. P., Lonardo, F., Ruckdeschel, J. C., Pass, H. I., Wali, A. (2010) Can. Chemother. Pharmacol. 66, 455-466), and the green monkey kidney Cos-7 cells was carried out essentially as described (Rishi, A. K., Zhang, L., Boyanapalli, M., Wali, A., Mohammad, R. M., Yu, Y., Fontana, J. A., Hatfield, J. S., Dawson, M. I., Majumdar, A. P. N., and Reichert, U. (2003) J. Biol. Chem. 278, 33422-33435, Rishi, A. K., Zhang, L., Yu, Y., Jiang, Y., Nautiyal, J., Wali, A., Fontana, J. A., Levi, E., and Majumdar, A. P. N. (2006) J. Biol. Chem. 281(19), 13188-98, Zhang, L., Levi, E., Majumder, P., Yu, Y., Aboukameel, A., Du, J., Xu, H., Mohammad, R. M., Hatfield, J. S., Wali, A., Adsay, V., Majumdar, A. P. N., and Rishi, A. K. (2007) Mol. Cancer Ther. 6(5), 1661-1672, Levi, L., Zhang, L., Aboukameel, A., Rishi, S., Mohammad, R. M., Polin, L., Hatfield, J. S., and Rishi, A. K. Can. Chemother. Pharmacol. (in Press). The immortalized, non-tumorigenic human breast epithelial MCF-10A have been described before (Miller, F. R. (2000). J. Mammary Gland Biol. Neoplasia 5, 379-391). MCF-7 cells that are resistant to adriamycin (MCF-7/Adr/Vp) or tamoxifen (MCF-7-TAM) were obtained from Drs. Douglas Ross (University of Maryland Baltimore) and Kaladhar Reddy (Pathology Department, Wayne State University, Detroit, Mich.), respectively, and were maintained essentially following methods described before (Doyle, L. A., Yang, W., Abruzzo, L. V., Krogmann, T., Gao, Y., Rishi, A. K., and Ross, D. D. (1998). Proc. Natl. Acad. Sci. (USA), 95, 15665-15670, Nabha, S., Glaros, S., Hong, M., Lykkesfeidt, A. E., Schiff, R., Osborne, C. K., Reddy, K. B. (2005). Oncogene, 24, 3166-3176). The stable sublines were generated by transfecting the MDA-MB-468 cells with the vector or the recombinant pcDNA3/CARP-1 (Δ896-978)-myc-His plasmid followed by selection in the presence of 800 μg/ml neomycin using described methods (Rishi, A. K., Zhang, L., Boyanapalli, M., Wali, A., Mohammad, R M, Yu, Y., Fontana, J. A., Hatfield, J. S., Dawson, M. I., Majumdar, A. P. N., and Reichert, U. (2003) J. Biol. Chem. 278, 33422-33435).
Logarithmically growing cells were either untreated or treated with different agents for various time periods. The cells were lysed to prepare protein extracts. IP was carried out by incubating approximately 1 mg of the protein lysate with appropriate antibodies, and the immunoprecipitates or cell lysates were then electrophoresed on 9-12% SDS-polyacrylamide gels, and transferred to nitrocellulose membranes. The membranes were subsequently probed with various antibodies to determine expression/presence of the corresponding proteins. The cell growth inhibition was assessed by using MTT assay. […]

[2] = tested on: HBC, colon, prostate, pancreatic cancer, MPM and lymphoma cells; experiment: MTT cell viability assay, cancer cells; format: cell-based, human
Description: Logarithmically growing cells were either untreated or treated with different agents for various time periods. The cells were lysed to prepare protein extracts. IP was carried out by incubating approximately 1 mg of the protein lysate with appropriate antibodies, and the immunoprecipitates or cell lysates were then electrophoresed on 9-12% SDS-polyacrylamide gels, and transferred to nitrocellulose membranes. The membranes were subsequently probed with various antibodies to determine expression/presence of the corresponding proteins. The cell growth inhibition was assessed by using MTT assay. Briefly, MTT (3-[4,5-Dimethylthiazol-2-yl]-2,5diphenyltetrazolium bromide) was dissolved in sterile 1×PBS to prepare a stock solution of 5 mg/ml. The solution was subsequently filtered through 0.2 μm filter and stored at 2-8° C. 4−5×10^2 cells were seeded in 96-well plates. After 72 h incubation with or without different agents, MTT stock solution was added to each culture being assayed to equal one tenth the original culture volume, followed by incubation of cells at 37° C. for another 2 h. At the end of the incubation, the media was removed and cells were treated with 100-200 μl of DMSO to solubilize the dye. The assessment of the live cells was derived by measuring the absorbance of the converted dye at wavelength of 570 nm.
To test whether CFMs that interfere with CARP-1 binding with APC-2 modulate cell growth, HBC, colon, prostate, pancreatic cancer, MPM and lymphoma cells, as well as the immortalized, mammary epithelial MCF-10A cells were utilized. The cells were either treated with vehicle (DMSO) or various doses of the respective compound for a period of 72 h, and percent of live/viable cells for each compound was determined relative to the untreated controls as described in Methods.

Compound	growth of wild-type, vector and CARP-1 (Δ896-978) expressing cells (MTT) [1]	sensitivity of CARP-1 (Δ896-978) expressing cells to inhibition [1]	HBC cell growth / viability (MTT) ([2]; HBC cells, 72 h)	cell growth of MPM cells (MTT) ([2]; MPM cells, 72 h)	sensitivity of HBC cells compared with similar dose of CFM-1 and 5 (MTT) ([2]; HBC cells, 20 μM dose)	loss of viability of CARP-1 (Δ896-978) cells versus wild-type or vector-transfected cells ([1]; 10 μM dose)
COc1cccc2c1C(=O)c1c(O)c3c(c(O)c1C2=O)C[C@@](O)(C(=O)CO)C[C@@H]3O[C@H]1C[C@H](N)[C@H](O)[C@H](C)O1 [ADR, adriamycin, reference compound]	suppressed growth	generally more sensitive				
Cc1cc(Br)cc2c1NC(=O)/C2=C1\SC(=S)NC1=O [CFM-1, (Z)-5-(5-bromo-7-methyl-2-oxoindolin-3-ylidene)-2-thioxothiazolidin-4-one]			suppressed viabilities	elicited activity towards select MPM cells		
O=C1N(Cc2ccccc2Cl)c2ccccc2C12NN=C(c1ccccc1)S2 (stereo not drawn) [CFM-4, 1-(2-chlorobenzyl)-5′-phenyl-3′H-spiro[indoline-3,2′-[1,3,4]thiadiazol]-2-one]	suppressed growth	generally more sensitive	suppressed viabilities		relative increased sensitivity	greater loss of viability
